This passage reports Normal melting temperature results from the NIST ThermoML archive (doi:10.1016/j.tca.2009.06.018).

Numbers after ± are expanded uncertainties.

For the series the following is noted: Crystal; DTA.
As for `CCCCCCCCCCCCCCCC(=O)O` [hexadecanoic acid], the Normal melting temperature stood at 64.07 ± 0.5 °C.
`CCCCCCCC(=O)O` [octanoic acid]: the Normal melting temperature stood at 16.48 ± 0.5 °C.
On to `CCCCCCCCCCCCCCCCCC(=O)O` [octadecanoic acid], for which the Normal melting temperature was found to be 70.83 ± 0.5 °C.
Turning to `CCCCCCCCCC(=O)O` [decanoic acid], the Normal melting temperature is 32.31 ± 0.5 °C.
For the compound `CCCCCCCCCCCCCC(=O)O` [tetradecanoic acid], the Normal melting temperature turned out to be 55.73 ± 0.5 °C.
Turning to `CCCCCCCCCCCC(=O)O` [dodecanoic acid], the Normal melting temperature came out at 44.92 ± 0.5 °C.
